Measured values: ChEMBL document CHEMBL1201862, “PubChem BioAssay data set” (2004)
The source made the active and inactive calls. For most assays here, no stated cut-off is given here; in the data, actives have a measured EC50 and inactives only a lower limit.

Tests used:
Cytochrome P450 2C9 = Cytochrome P450 2C9 (Homo sapiens, UniProt P11712)
[1] = system: Streptococcus sp. 'group A'; experiment: Streptococcus pyogenes SK(-)GAS viability under kanamycin – luminescence, BacTiterGlo, confirmation, counter-screen for streptokinase expression inhibitor project, dose response (AID 1900); type: functional, organism-based
Streptokinase A = target: T1, Streptokinase A (Streptococcus pyogenes serotype M1, UniProt P10520); experiment: viability-normalized secreted streptokinase activity reduction – plasminogen activation absorbance, OD405, dose response (AID 1914); type: functional, Streptococcus pyogenes M1 GAS;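 further: secreted streptokinase activity via plasminogen activation per viability signal from cell pellet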
T1 sequence (P10520 whole entry): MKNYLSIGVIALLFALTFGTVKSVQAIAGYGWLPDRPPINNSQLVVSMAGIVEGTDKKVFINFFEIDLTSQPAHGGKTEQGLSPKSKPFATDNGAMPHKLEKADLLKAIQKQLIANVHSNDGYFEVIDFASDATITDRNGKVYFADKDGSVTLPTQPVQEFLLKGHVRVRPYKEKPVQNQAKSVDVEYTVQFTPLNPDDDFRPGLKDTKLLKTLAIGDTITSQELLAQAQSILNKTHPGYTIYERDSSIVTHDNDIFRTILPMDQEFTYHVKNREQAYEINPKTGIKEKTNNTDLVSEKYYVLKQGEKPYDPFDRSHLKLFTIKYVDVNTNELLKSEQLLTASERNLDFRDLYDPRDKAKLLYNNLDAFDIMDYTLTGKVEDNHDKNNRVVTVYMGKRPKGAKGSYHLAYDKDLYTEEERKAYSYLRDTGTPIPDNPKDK

Streptococcus = experiment: GAS UMAA2166 growth inhibition – luminescence, BacTiterGlo, counter-screen for streptokinase expression inhibitor project, dose response (AID 1915); type: functional, organism-based;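 further: potency for reduction of bacterial viability or growth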
[2] = NIH-3T3 fibroblast cytotoxicity, dose response, cytotoxicity control, cell-based, fluorescence, Alamar Blue, secondary assay (AID 2327); type: functional;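 further: NIH-3T3 mouse fibroblasts cultured with fluconazole at 8 µg/mL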
[3] = fluconazole-exposed Candida albicans growth modulators – fluorescence, retest, confirmation (AID 2467); type: functional, cell-based
INS1 = experiment: INS-1E survival protection against cytokine death – cell-based, luminescence, retest, dose response (AID 449756); type: functional; conditions: Rattus norvegicus;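 further: cell death triggered by IL-1 beta plus TNF-alpha plus IFN-gamma mixture; protective hits raise ATP signal compared with cytokine alone wells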
[4] = Trypanosoma cruzi growth suppression in host cells – NIH3T3 host cells, beta-gal luminescence, confirmation (AID 2044); type: functional, cell-based;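 further: intracellular parasites grown in NIH/3T3 mouse fibroblasts as host cells; luminescent beta-galactosidase reporter signal from transgenic T. cruzi replicating inside host cells; inhibitors lower the luminescence signal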
[5] = NIH3T3 cell viability loss – ATP luminescence, mouse fibroblasts, counter-screen, dose response (AID 2010); type: functional, cell-based;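 further: cells exposed to compound for about 90 hours before reading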
[6] = Luminescence Cell-Based Dose Retest to Confirm Inhibitors of Cancer Stem Cells. [Related pubchem assays (depositor defined):AID2717, AID2721]; type: functional; conditions: Homo sapiens
[7] = target: T2, Corticotropin-releasing factor receptor 2/Corticotropin-releasing factor-binding protein (Homo sapiens, UniProt P24387+Q13324); experiment: activators of CRF receptor 2 with binding protein – uHTS hits, confirmation (AID 602473); type: functional; conditions: read-out: EC50_Mean
T2 sequence (Q13324 whole entry): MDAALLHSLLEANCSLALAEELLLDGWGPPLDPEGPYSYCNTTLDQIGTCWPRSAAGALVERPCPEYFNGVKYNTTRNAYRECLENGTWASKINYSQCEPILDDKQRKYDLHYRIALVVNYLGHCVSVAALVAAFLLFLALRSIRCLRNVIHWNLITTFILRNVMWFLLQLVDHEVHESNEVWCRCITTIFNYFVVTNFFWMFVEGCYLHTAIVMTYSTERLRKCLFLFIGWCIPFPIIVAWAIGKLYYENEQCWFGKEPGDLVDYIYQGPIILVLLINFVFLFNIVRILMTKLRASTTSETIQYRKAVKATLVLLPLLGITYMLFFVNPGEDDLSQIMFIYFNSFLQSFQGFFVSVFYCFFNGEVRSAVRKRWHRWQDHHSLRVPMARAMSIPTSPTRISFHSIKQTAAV
T2 sequence (P24387 whole entry): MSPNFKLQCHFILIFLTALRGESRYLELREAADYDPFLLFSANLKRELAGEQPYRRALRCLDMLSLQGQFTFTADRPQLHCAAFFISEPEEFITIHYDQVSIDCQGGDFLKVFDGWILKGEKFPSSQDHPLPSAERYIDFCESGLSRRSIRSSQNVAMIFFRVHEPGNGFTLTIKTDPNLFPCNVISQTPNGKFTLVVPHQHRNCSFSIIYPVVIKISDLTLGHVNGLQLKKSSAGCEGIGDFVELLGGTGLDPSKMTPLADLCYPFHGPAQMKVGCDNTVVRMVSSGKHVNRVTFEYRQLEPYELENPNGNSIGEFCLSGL

Sequence of Cytochrome P450 2C9 (P11712 whole entry): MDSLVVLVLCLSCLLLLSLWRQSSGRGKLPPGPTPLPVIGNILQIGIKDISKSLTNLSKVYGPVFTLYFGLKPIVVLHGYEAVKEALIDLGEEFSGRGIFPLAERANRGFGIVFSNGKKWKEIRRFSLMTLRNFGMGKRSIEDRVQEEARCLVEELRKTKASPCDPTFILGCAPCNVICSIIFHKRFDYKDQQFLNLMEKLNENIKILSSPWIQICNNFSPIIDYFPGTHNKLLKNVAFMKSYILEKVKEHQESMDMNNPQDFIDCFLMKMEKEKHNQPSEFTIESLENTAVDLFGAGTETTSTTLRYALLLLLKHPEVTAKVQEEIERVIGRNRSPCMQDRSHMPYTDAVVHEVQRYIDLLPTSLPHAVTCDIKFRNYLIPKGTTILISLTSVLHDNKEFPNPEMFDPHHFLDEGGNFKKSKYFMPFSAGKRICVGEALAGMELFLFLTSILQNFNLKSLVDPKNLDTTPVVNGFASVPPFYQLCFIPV

## COc1ccc2c(c1)c(CC(=O)O)c(C)n2Cc1ccc(Cl)cc1
Cytochrome P450 2C9
  AC50: 12.6 µM (inconclusive)

## CC(C)CCOc1ccc(NC(=O)C2OC3OC(C)(C)OC3C3OC(C)(C)OC23)cc1 (stereo not given)
Cytochrome P450 2C9
  AC50: 25.1 µM (inconclusive)

## CC1(C)S[C@@H]2[C@H](NC(=O)COc3ccccc3)C(=O)N2C1C(=O)OCc1ccccc1 (stereo not given in full)
[1]
  EC50: 1.42 µM (active)
Streptokinase A
  EC50: > 150 µM (not active)
Streptococcus
  EC50: 2.56 µM (active)

## Cc1cccc(NC(=O)NNC(=O)c2cc3ccccc3cc2O)c1C
[2]
  EC50: 80.6 µM (active)
[3]
  EC50: > 38 µM (not active)

## CC(=O)c1ccccc1OCCOCCOc1ccccc1C(C)=O
INS1
  AC50: 31.1 µM (active)

## COc1ccc(CN(C)CC(=O)c2c(N)n(Cc3ccccc3)c(=O)n(C)c2=O)c(OC)c1
[4]
  EC50: 2.78 µM (active)
[5]
  EC50: > 60 µM (not active)

## COc1cc(OC)c(NC(S)=NCc2ccccc2)cc1Cl
[2]
  EC50: > 160 µM (inactive)
[3]
  EC50: > 38 µM (not active)

## COc1ccc(/C=C/C2=CCN(Cc3ccc(OC)cc3)CC2)cc1
[4]
  EC50: 3.17 µM (active)
[5]
  EC50: > 60 µM (not active)

## CSc1ccc(/C=C/c2ccc3cccc(O)c3n2)cc1
[1]
  EC50: 0.693 µM (active)
Streptococcus
  EC50: 14 µM (active)

## Cc1ccc(-n2c(N)c(-c3nc4ccccc4n3C)sc2=S)cc1
[1]
  EC50: 39.6 µM (active)
Streptokinase A
  EC50: > 150 µM (not active)
Streptococcus
  EC50: > 150 µM (not active)

## Cc1ccc2nc(N=C(NS(=O)(=O)c3ccc(F)cc3)c3ccccc3)sc2c1
[1]
  EC50: 5.01 µM (active)
Streptokinase A
  EC50: > 50 µM (not active)
Streptococcus
  EC50: 10 µM (active)

## CSc1cnc2c(N)nc(N(C)C)nc2n1
[2]
  EC50: > 160 µM (inconclusive)
[3]
  EC50: 2.63 µM (active)

## CC(=O)c1c(O)cc(=O)n(-c2ccccc2)c1-c1cccc2ccccc12
Cytochrome P450 2C9
  AC50: 22.4 µM (inconclusive)

## COc1cc(OC)c(C=O)c(OC(=O)N2CCOCC2)c1
[6]
  AC50: > 195 µM (inactive)

## O=C(c1ccc(O)cc1)c1ccc(C(=O)c2ccc(O)cc2)cc1
[1]
  EC50: 2.84 µM (active)
Streptokinase A
  EC50: > 150 µM (not active)
Streptococcus
  EC50: 31.4 µM (active)

## CCn1cc(C(=O)N[C@H](C)c2ccccc2)c(=O)c2cc(F)c(N3CCN(C)CC3)cc21
[6]
  AC50: 0.796 µM (active)

## CN1CCc2nc(SCc3ccc(C(C)(C)C)cc3)c(C#N)cc2C1
[4]
  EC50: 0.465 µM (active)
[5]
  EC50: 19 µM (active)

## COc1ccccc1CNc1nc(-c2ccc(N(C)C)cc2)nc2ccccc12
Cytochrome P450 2C9
  AC50: 0.794 µM (inconclusive)

## CC1(C)C=Cc2c(c3c(c4c(=O)c(-c5ccc(O)cc5)coc24)OC(C)(C)CC3)O1
[6]
  AC50: 6.61 µM (active)

## Cc1ccccc1CN(C)CC(=O)Nc1ccccc1-c1ccccc1
[1]
  EC50: 7.65 µM (active)
Streptokinase A
  EC50: 23.3 µM (active)
Streptococcus
  EC50: > 150 µM (not active)

## CC(=O)c1ccc(-c2cc([C@H]3[C@H]4C=CC[C@@H](C)[C@@H]4C(=O)N3Cc3ccccc3)ccc2F)cc1
[6]
  AC50: 5.46 µM (active)

## O=C(CSc1nnc(CNC(=O)c2ccccc2)o1)NCc1ccccc1
[1]
  EC50: > 150 µM (not active)
Streptokinase A
  EC50: > 150 µM (not active)
Streptococcus
  EC50: > 150 µM (not active)

## COc1ccc(C(=O)N2CCc3c([nH]c4ccccc34)C2C(F)(F)F)cc1 (stereo not given)
[1]
  EC50: > 150 µM (not active)
Streptokinase A
  EC50: > 150 µM (not active)
Streptococcus
  EC50: > 150 µM (not active)

## COc1cc(OC)cc(C(=O)Nc2cccc(N3CCCC3)c2)c1
[4]
  EC50: 3.33 µM (active)
[5]
  EC50: > 30 µM (not active)

## CC1(C)CC(=O)C2=C(C1)OC1=C(C(=O)CC(C)(C)C1)C2c1cc([N+](=O)[O-])cc([N+](=O)[O-])c1O
[2]
  EC50: > 160 µM (inactive)
[3]
  EC50: 0.221 µM (active)

## Cn1c(=S)c2nc(SCc3cccnc3)[nH]c2n(C)c1=O
Cytochrome P450 2C9
  AC50: 6.31 µM (inconclusive)

## CN1CCN(CCOc2ccc(Cl)c(Cl)c2)CC1
[4]
  EC50: 0.516 µM (active)
[5]
  EC50: > 60 µM (not active)

## CC(C)Cc1ccc(C(C)C(=O)Nc2ccc(O)cc2)cc1 (stereo not given)
[7]
  EC50: 3.77 µM (active)

## COc1cc2cc(C(=O)N3CCOCC3)cc(-c3ccc(C)cc3)c2cc1OC
INS1
  AC50: 6.42 µM (active)

## CCCOc1ccc(NCC(=O)Nc2ccc(C)cc2C)cc1
[4]
  EC50: 3.07 µM (active)
[5]
  EC50: > 60 µM (not active)

## Cc1ccc(NC(=S)N(CCCN2CCCC2)Cc2cccn2Cc2ccc(Cl)cc2)cc1Cl
[6]
  AC50: 5.36 µM (active)

## COc1ccc(CCC(C)NCC2CCCCC2)cc1 (stereo not given)
[6]
  AC50: 5.09 µM (active)

## COc1ccc(S(=O)(=O)N2CCCCCC2)cc1N(C)S(=O)(=O)c1ccc(Cl)cc1
[4]
  EC50: 2.21 µM (active)
[5]
  EC50: > 60 µM (not active)

## CC(C)(C)c1cc(C(=O)NNc2cccc(Cl)c2)n(Cc2ccccc2)n1
[6]
  AC50: 1.34 µM (active)

## O=c1c2ccccc2nc(SCCN2CCCCC2)n1CCc1ccccc1
[4]
  EC50: 1.57 µM (active)
[5]
  EC50: > 60 µM (not active)

## COc1ccc(-n2c(=O)c3c4c(sc3n3c(S)nnc23)CCC4)cc1
[1]
  EC50: 15.7 µM (active)
Streptococcus
  EC50: 17.4 µM (active)

## Cc1ccc(-c2csc(-c3c[nH]c4ccccc34)n2)c(C)c1
[1]
  EC50: 12 µM (active)
Streptokinase A
  EC50: > 150 µM (not active)
Streptococcus
  EC50: 7.96 µM (active)
[6]
  AC50: 2.88 µM (active)

## COc1cnc(-c2ccccn2)nc1Oc1ccc(C(C)(C)C)cc1
[1]
  EC50: 12.4 µM (active)
Streptokinase A
  EC50: > 150 µM (not active)
Streptococcus
  EC50: 19.2 µM (active)
INS1
  AC50: 6.45 µM (active)

## CN1CCN(CCCOc2ccc(-c3ccccc3)cc2)CC1
[4]
  EC50: 0.988 µM (active)
[5]
  EC50: 7.93 µM (active)

## COc1ccccc1CNC(=O)C(=O)NCC1CCCN1S(=O)(=O)c1cccs1 (stereo not given)
[4]
  EC50: 2.54 µM (active)
[5]
  EC50: > 60 µM (not active)

## O=C(NCCc1ccccc1F)C1CCCN1S(=O)(=O)c1ccc2ccccc2c1 (stereo not given)
[4]
  EC50: 1.63 µM (active)
[5]
  EC50: > 60 µM (not active)

## O=[N+]([O-])c1ccc(CP(=O)(c2ccccc2)c2ccccc2)cc1
[6]
  AC50: > 195 µM (inactive)

## O=C(Nc1cccc(-c2csc(Nc3ccc(Cl)cc3)n2)c1)c1cc([N+](=O)[O-])cc(C(F)(F)F)c1
[6]
  AC50: 1.56 µM (active)

## Cc1ccc(NS(=O)(=O)c2ccc(NC(=O)c3ccccc3C(=O)O)cc2)c(C)c1
[4]
  EC50: > 60 µM (not active)
[5]
  EC50: > 60 µM (not active)

## Cc1cc2oc(=O)cc(CN3CCN(S(=O)(=O)/C=C/c4ccccc4)CC3)c2cc1C
[4]
  EC50: 2.02 µM (active)
[5]
  EC50: > 60 µM (inconclusive)

## Cc1ccc(-c2cc(-c3ccccc3)nc(N(C)N)n2)cc1
[1]
  EC50: 14.6 µM (active)
Streptokinase A
  EC50: > 150 µM (not active)
Streptococcus
  EC50: > 150 µM (not active)

## c1ccc(CSc2nnc([C@@H]3CCCN3)o2)cc1
Cytochrome P450 2C9
  AC50: 5.62 µM (inconclusive)

## Cc1nc(SCc2nc3cc(C(F)(F)F)ccc3[nH]2)c2oc3ccccc3c2n1
[6]
  AC50: 4.11 µM (active)

## COc1cc(/C=N/N(c2ccccc2)c2ccccc2)ccc1O
[6]
  AC50: 5.16 µM (active)

## CCCCc1ccc(N/N=C(\C(C)=O)C(=O)Nc2ccc(NC(C)=O)cc2OC)cc1
[6]
  AC50: 3.91 µM (active)

## Cc1ccc(-c2nn3c(O)c4c(nc3c2C)CCCC4)cc1
Cytochrome P450 2C9
  AC50: 6.31 µM (inconclusive)

## O=C1CN(/N=C/c2ccc([N+](=O)[O-])o2)C(=O)N1 [NITROFURANTOIN]
[1]
  EC50: 3.16 µM (active)
Streptokinase A
  EC50: > 150 µM (not active)
Streptococcus
  EC50: 9.83 µM (active)
